Measured values: patent publication US20080317752A1, “Inhibition of Tumorigenesis by Inhibition of a6b4 Integrin” (Sloan-Kettering Institute for Cancer Research, priority 2005, published 2008)

Legend:
[1] = system: mammary tumors of Neu(YD) mice; assay: Tumor apoptosis in treated mice; assay type: in vivo
c-Jun = assay: Phosphorylation of c-Jun in Neu-b4-WT cells; assay type: cell-based, mouse
ERK and Akt [2] = assay: Activation of ERK and Akt in tumor lysates of treated mice; assay type: in vivo; conditions: Neu(YD)/b4-1355T versus Neu(YD)/b4-WT tumors
c-Jun and STAT3 = assay: Activation of c-Jun and STAT3 in tumor lysates of treated mice; assay type: in vivo; conditions: both types of tumors
ErbB2 [3] = assay: Activation of ErbB2 in tumors of treated mice; conditions: Neu(YD)/b4-WT and Neu(YD)/b4-1355T tumors
[4] = system: tumor cells expressing wild-type b4; assay: Assembly of adherens and tight junctions in primary ErbB2-transformed tumor cells; assay type: cell-based, mouse
Description: Tight junctions have emerged as key regulators of mammalian epithelial polarity and adhesion. Prompted by the observation that deletion of the b4 signaling domain increases the organization of tight junctions in mammary tumors, we used an ex vivo approach to examine the effect of b4 signaling on epithelial adhesion and polarity.

[5] = system: mammary tumors of MMTV-Neu (YD) mice; assay: Treatment of tumor-bearing MMTV-Neu(YD) mice, tumor volume by caliper; assay type: in vivo; conditions: for effect on tumor volume: Iressa 100 mg/Kg/day, day 24; for treated tumors that regress: Iressa 100 mg/Kg/day gastric gavage 24 days
[6] = system: mammary tumors of MMTV-Neu (YD) mice; assay: Anti-Ki-67 staining of tumor sections from treated MMTV-Neu(YD) mice; assay type: in vivo
Method: Tumor sections were stained by IHC with anti-Ki-67 followed by counterstaining with hematoxylin. Bar=[…].
Tumor sections were stained with anti-Ki-67 Mab, which labels proliferating cells.

STAT3 = assay: Phosphorylation of STAT3 in Neu-b4-WT cells; assay type: cell-based, mouse
Description: Prior studies have linked SFK-mediated phosphorylation of the P-loop of ErbB receptors to JAK-STAT signaling. Since deletion of the b4 signaling domain reduces SFK activation and association with ErbB2 and decreases phosphorylation of the P-loop of ErbB-2, we examined the effect of this deletion on STAT3 activation. Phosphorylation at Y705 is essential for dimerization and activation of STAT3. […] […]. STAT3 S727, which is targeted by ERK, was phosphorylated at similar levels in both types of cells.

activated ErbB2 = assay: Inhibition of activated ErbB2 (IC50); assay type: cell-based; conditions: Neu-b4-WT versus Neu-b4-1355T cells in vitro
Sequence of activated ErbB2 (P04626 23-1255): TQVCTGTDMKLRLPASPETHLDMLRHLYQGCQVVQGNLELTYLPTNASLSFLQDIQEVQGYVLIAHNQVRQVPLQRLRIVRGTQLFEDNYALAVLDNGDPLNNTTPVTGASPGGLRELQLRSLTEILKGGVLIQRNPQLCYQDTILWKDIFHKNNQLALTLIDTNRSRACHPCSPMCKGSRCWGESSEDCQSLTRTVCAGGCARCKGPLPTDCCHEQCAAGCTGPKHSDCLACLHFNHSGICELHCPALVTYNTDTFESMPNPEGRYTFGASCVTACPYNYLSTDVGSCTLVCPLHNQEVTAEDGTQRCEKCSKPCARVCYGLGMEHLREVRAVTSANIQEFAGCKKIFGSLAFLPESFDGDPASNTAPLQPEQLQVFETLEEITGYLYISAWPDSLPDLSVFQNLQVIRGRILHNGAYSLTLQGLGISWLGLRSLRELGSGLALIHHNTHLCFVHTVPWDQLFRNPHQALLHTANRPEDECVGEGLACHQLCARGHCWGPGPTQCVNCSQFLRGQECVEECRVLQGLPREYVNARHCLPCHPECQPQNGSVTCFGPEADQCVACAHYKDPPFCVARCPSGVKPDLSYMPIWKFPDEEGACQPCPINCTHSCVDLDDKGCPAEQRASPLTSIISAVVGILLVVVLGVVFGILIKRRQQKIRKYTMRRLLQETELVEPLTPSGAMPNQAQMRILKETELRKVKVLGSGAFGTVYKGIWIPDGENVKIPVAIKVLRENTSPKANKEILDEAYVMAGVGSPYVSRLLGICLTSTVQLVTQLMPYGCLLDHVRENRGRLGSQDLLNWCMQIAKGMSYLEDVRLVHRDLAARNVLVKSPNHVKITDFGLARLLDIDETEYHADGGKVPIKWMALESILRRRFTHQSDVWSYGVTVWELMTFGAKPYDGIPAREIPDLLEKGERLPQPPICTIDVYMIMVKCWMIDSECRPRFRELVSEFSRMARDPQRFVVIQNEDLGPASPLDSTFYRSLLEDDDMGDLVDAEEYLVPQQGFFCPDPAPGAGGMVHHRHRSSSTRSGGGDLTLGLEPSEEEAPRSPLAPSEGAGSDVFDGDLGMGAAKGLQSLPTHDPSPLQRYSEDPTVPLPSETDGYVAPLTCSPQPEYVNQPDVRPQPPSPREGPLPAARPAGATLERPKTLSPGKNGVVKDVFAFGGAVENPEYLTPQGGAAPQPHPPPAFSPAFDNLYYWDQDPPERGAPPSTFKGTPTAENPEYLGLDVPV

SFKs = assay: Activation of SFKs; assay type: cell-based
Method: (§1) Biochemical studies were performed to study the molecular mechanism by which b4 signaling promotes mammary tumorigenesis.

Neu-b4-WT cells [7] = assay: Matrigel invasion assay in response to FBS; conditions: Iressa 10 μM
ERK and Akt [8] = assay: Activation of ERK and Akt in Neu-b4 cells in vitro; assay type: cell-based, mouse; conditions: Neu-b4-1355T versus Neu-b4-WT cells
b4 = assay: Tyrosine phosphorylation of b4; assay type: cell-based
Method: as §1

Neu-b4-WT cells [9] = assay: Assembly of adherens and tight junctions in isogenic Neu-b4-WT cells; conditions: Neu-b4-WT cells in culture
Description: To examine if the b4 integrin disrupts epithelial adhesion by a direct signaling mechanism, we generated isogenic Neu-transformed mammary tumor cells expressing either wildtype or mutant b4 by using an RNAi-reconstitution strategy.

ErbB2 [10] = assay: Phosphorylation of ErbB2 (immunoprecipitation / immunoblotting); assay type: cell-based; conditions: for phosphorylation of the P-loop of ErbB2: immunoblotting of total lysates, single agent
Method: as §1
Since SFKs can phosphorylate Y845 in the P-loop of the EGF-R, we examined the effect of SFK inhibition on phosphorylation of the corresponding tyrosine in the P-loop of ErbB2.

Compound: COc1cc2ncnc(Nc3ccc(F)c(Cl)c3)c2cc1OCCCN1CCOCC1 [Iressa, Gefitinib]
- tumor apoptosis, comparison of genotypes ([1]; Neu(YD)/b4-1355T versus Neu(YD)/b4-WT mice): increased tumor apoptosis in Neu(YD)/b4-1355T mice to a larger extent than it did in Neu(YD)/b4-WT mice
- overall apoptotic rates ([1]; both genotypes, treated): less than 1%
- phosphorylation of c-Jun (c-Jun): inhibited phosphorylation of c-Jun in Neu-b4-WT cells, but at concentrations higher than those required to suppress activation of ERK
- activation of ERK and Akt in tumor lysates (ERK and Akt [2]): inhibited activation of ERK and Akt in Neu(YD)/b4-1355T tumors by an extent larger than it did in Neu(YD)/b4-WT tumors
- activation of c-Jun and STAT3 in tumor lysates (c-Jun and STAT3): did not suppress but seemed to increase to a small extent
- activation of ErbB2 in tumors (ErbB2 [3]): suppressed activation of ErbB2 in both types of tumors
- reassembly of adherens and tight junctions [4]: promoted reassembly of both adherens and tight junctions
- effect on tumor volume ([5]; Neu(YD)/b4-1355T tumors): induced regression
- effect on tumor volume ([5]; Neu(YD)/b4-WT tumors): only reduced the rate of growth
- treated tumors that regress ([5]; control group (wild-type b4 mice)): ~20%
- treated tumors that regress ([5]; tumors arising in b4-mutant mice): About 80%
- tumor cell proliferation ([6]; Neu(YD)/b4-1355T mice): inhibited tumor cell proliferation
- tumor cell proliferation ([6]; Neu(YD)/b4-WT mice): more modest inhibitory effect
- phosphorylation of STAT3 (STAT3): inhibited phosphorylation of STAT3 in Neu-b4-WT cells at concentrations higher than those necessary to suppress activation of ERK
- apparent IC50, comparison of cell types (activated ErbB2): equal apparent IC50
- activation of SFKs (SFKs): did not affect
- Matrigel invasion (Neu-b4-WT cells [7]): prevented their invasion
- activation of ERK and Akt in vitro (ERK and Akt [8]): at doses lower than in Neu-b4-WT cells
- tyrosine phosphorylation of b4 (b4): suppressed
- organization of adherens and tight junctions (Neu-b4-WT cells [9]): failed to organize both types of junctions, unless they were treated with Iressa
- phosphorylation of ErbB2 at its major autophosphorylation site (ErbB2 [10]): suppressed
- tyrosine phosphorylation of ErbB2 (ErbB2 [10]): suppressed
- phosphorylation of the P-loop of ErbB2 (ErbB2 [10]): inhibit phosphorylation of the P-loop of ErbB2 to a significant extent

Compound: CC(C)(C)n1nc(-c2ccc(Cl)cc2)c2c(N)ncnc21 [PP2]
- activation of SFKs (SFKs): exerted the opposite effects
- tyrosine phosphorylation of b4 (b4): suppressed
- phosphorylation of ErbB2 at its major autophosphorylation site (ErbB2 [10]): exerted the opposite effects
- tyrosine phosphorylation of ErbB2 (ErbB2 [10]): only partially inhibited
- phosphorylation of the P-loop of ErbB2 (ErbB2 [10]): inhibit phosphorylation of the P-loop of ErbB2 to a significant extent

Compound: COc1cccc2c1C(=O)c1c(O)c3c(c(O)c1C2=O)C[C@@](O)(C(=O)CO)C[C@@H]3O[C@H]1C[C@H](N)[C@H](O)[C@H](C)O1 [Doxorubicin]
- tumor regression ([5]; Neu(YD)/b4-WT and Neu(YD)/b4-1355T mice, single dose 10 mg/Kg): failed to induce tumor regression in either type of mouse
